Reference: patent US8889874B2, “Imidazolone-chalcone derivatives as potential anticancer agent and process for the preparation thereof” (Council of Scientific and Industrial Research, priority 2010, dated 2014)
Where two headings read alike, the source gives them in different places.

Legend:
Test in all cases: NCI anticancer screen, SRB assay, 48 h
Type in all cases: cell-based, human
[1] = system: HCT-116 (colon)
Method in brief: (§1)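 Compounds were tested across fifty three human cancer cell lines from nine tumour types. Each line got a dose-response curve of at least five concentrations at 10-fold dilutions, with continuous drug exposure and sulforhodamine B protein staining to estimate viability or growth.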

[2] = system: UACC-62 (melanoma)
Method in brief: as §1

[3] = system: RPMI-8226 (leukemia cell line)
Method in brief: as §1

[4] = system: K-562 (leukemia cell line)
Method in brief: as §1

[5] = system: M14 (melanoma)
Method in brief: as §1

[6] = system: SF-295 (CNS)
Method in brief: as §1

[7] = system: U251 (CNS)
Method in brief: as §1

[8] = system: SNB-19 (CNS)
Method in brief: as §1

[9] = system: MDA-MB-231/ATCC (breast)
Method in brief: as §1

[10] = system: OVCAR-4 (ovarian)
Method in brief: as §1

[11] = system: UACC-257 (melanoma)
Method in brief: as §1

[12] = system: MALME-3M (melanoma)
Method in brief: as §1

[13] = system: HT29 (colon)
Method in brief: as §1

[14] = system: HOP-62 (non-small cell lung); conditions: for GI50: Homo sapiens
Method in brief: as §1

[15] = system: SK-MEL-28 (melanoma)
Method in brief: as §1

[16] = system: SF-268 (CNS)
Method in brief: as §1

[17] = system: OVCAR-8 (ovarian)
Method in brief: as §1

[18] = system: NCI-H460 (non-small cell lung)
Method in brief: as §1

[19] = system: SW-620 (colon)
Method in brief: as §1

[20] = system: MCF7 (breast)
Method in brief: as §1

[21] = system: NCI/ADR-RES (ovarian)
Method in brief: as §1

[22] = system: LOX IMVI (melanoma)
Method in brief: as §1

[23] = system: NCI-H226 (non-small cell lung); conditions: Homo sapiens
Method in brief: as §1

[24] = system: RXF 393 (renal)
Method in brief: as §1

[25] = system: SNB-75 (CNS); conditions: for GI50: Homo sapiens
Method in brief: as §1

[26] = system: 786-0 (renal)
Method in brief: as §1

[27] = system: SK-OV-3 (ovarian)
Method in brief: as §1

[28] = system: ACHN (renal)
Method in brief: as §1

[29] = system: HS 578T (breast)
Method in brief: as §1

[30] = Homo sapiens, 48 h exposure, SRB, read-out: GI50
[31] = Homo sapiens, read-out: pGI50 (-log of molar concentration causing 50% inhibition of net cell growth) (converted)
[32] = 48 h exposure, SRB, read-out: GI50
[33] = read-out: pGI50 (-log of molar concentration causing 50% inhibition of net cell growth) (converted)

COc1cc(/C=C/C(=O)c2cccc(-n3cc(-c4cc(OC)c(OC)c(OC)c4)[nH]c3=O)c2)cc(OC)c1OC [5d, 4-(3,4,5-trimethoxyphenyl)-1-3-[(E)-3-(3,4,5-trimethoxyphenyl)-2-propenoyl]phenyl-2,3-dihydro-1H-2-imidazolone]
GI50 [1, 30]: 740 nM | GI50 [1, 31]: 741 nM | GI50 [2, 30]: 1870 nM | GI50 [2, 31]: 1860 nM | GI50 [3, 30]: 230 nM | GI50 [3, 31]: 229 nM | GI50 ([4]; Homo sapiens, K562, 48 h exposure, SRB, read-out: GI50): 590 nM | GI50 ([4]; Homo sapiens, K562, read-out: pGI50 (-log of molar concentration causing 50% inhibition of net cell growth) (converted)): 589 nM | GI50 [5, 30]: 2120 nM | GI50 [5, 31]: 2140 nM | GI50 [6, 30]: 4.96 µM | GI50 [6, 31]: 5.01 µM | GI50 ([7]; Homo sapiens, U-251, 48 h exposure, SRB, read-out: GI50): 1230 nM | GI50 ([7]; Homo sapiens, U-251, read-out: pGI50 (-log of molar concentration causing 50% inhibition of net cell growth) (converted)): 1230 nM | GI50 [8, 30]: 4.07 µM | GI50 [8, 31]: 4.07 µM | GI50 [9, 30]: 4.19 µM | GI50 [9, 31]: 4.17 µM | GI50 [10, 30]: 3.77 µM | GI50 [10, 31]: 3.8 µM | GI50 [11, 30]: 2220 nM | GI50 [11, 31]: 2240 nM | GI50 ([12]; Homo sapiens, Malme-3M, read-out: pGI50 (-log of molar concentration causing 50% inhibition of net cell growth) (converted)): 1820 nM | GI50 ([12]; Homo sapiens, MALME-3M, 48 h exposure, SRB, read-out: GI50): 1800 nM | GI50 ([13]; Homo sapiens, HT-29, 48 h exposure, SRB, read-out: GI50): 1700 nM | GI50 ([13]; Homo sapiens, HT-29, read-out: pGI50 (-log of molar concentration causing 50% inhibition of net cell growth) (converted)): 1700 nM | GI50 [14, 32]: 3.08 µM | GI50 [14, 33]: 3.09 µM | GI50 [15, 30]: 1610 nM | GI50 [15, 31]: 1620 nM | GI50 [16, 30]: 2200 nM | GI50 [16, 31]: 2190 nM | GI50 [17, 30]: 2320 nM | GI50 [17, 31]: 2340 nM | GI50 [18, 30]: 1730 nM | GI50 [18, 31]: 1740 nM | GI50 [19, 30]: 1030 nM | GI50 [19, 31]: 1020 nM | GI50 [20, 30]: 470 nM | GI50 [20, 31]: 468 nM | GI50 ([21]; Homo sapiens, NCI/ADR-RES, NCl/ADR-RES, 48 h exposure, SRB, read-out: GI50): 2100 nM | GI50 ([21]; Homo sapiens, NCI/ADR-RES, read-out: pGI50 (-log of molar concentration causing 50% inhibition of net cell growth) (converted)): 2090 nM | GI50 [22, 30]: 1230 nM | GI50 [22, 31]: 1230 nM | GI50 [23, 32]: 14.4 µM | GI50 [23, 33]: 14.5 µM | GI50 ([24]; Homo sapiens, RXF 393, 48 h exposure, SRB, read-out: GI50): 1620 nM | GI50 ([24]; Homo sapiens, RXF-393, read-out: pGI50 (-log of molar concentration causing 50% inhibition of net cell growth) (converted)): 1620 nM | GI50 [25, 32]: 5.13 µM | GI50 [25, 33]: 5.13 µM | GI50 [26, 30]: 1590 nM | GI50 [26, 31]: 1580 nM | GI50 [27, 30]: 5.12 µM | GI50 [27, 31]: 5.13 µM | GI50 [28, 30]: 1740 nM | GI50 [28, 31]: 1740 nM

COc1cc(/C=C/C(=O)c2cccc(-n3cc(-c4ccc(Cl)cc4)[nH]c3=O)c2)cc(OC)c1OC [5f, 4-(4-chlorophenyl)-1-3-[(E)-3-(3,4,5-trimethoxyphenyl)-2-propenoyl]phenyl-2,3-dihydro-1H-2-imidazolone]
pGI50 (-log of molar concentration causing 50% inhibition of net cell growth) [1]: 5.86 | GI50 [1, 32]: 1390 nM | pGI50 (-log of molar concentration causing 50% inhibition of net cell growth) [2]: 5.05 | GI50 [2, 32]: 8880 nM | pGI50 (-log of molar concentration causing 50% inhibition of net cell growth) [3]: 5.41 | GI50 [3, 32]: 3920 nM | pGI50 (-log of molar concentration causing 50% inhibition of net cell growth) [4]: 5.43 | GI50 [4, 32]: 3690 nM | pGI50 (-log of molar concentration causing 50% inhibition of net cell growth) [5]: 5.36 | GI50 [5, 32]: 4360 nM | pGI50 (-log of molar concentration causing 50% inhibition of net cell growth) [6]: 4.61 | GI50 [6, 32]: 24.3 µM | pGI50 (-log of molar concentration causing 50% inhibition of net cell growth) [7]: 5.67 | GI50 [7, 32]: 2120 nM | pGI50 (-log of molar concentration causing 50% inhibition of net cell growth) [8]: 4.79 | GI50 [8, 32]: 16.1 µM | pGI50 (-log of molar concentration causing 50% inhibition of net cell growth) [9]: 4.86 | GI50 [9, 32]: 13.8 µM | pGI50 (-log of molar concentration causing 50% inhibition of net cell growth) [10]: 4.94 | GI50 [10, 32]: 11.4 µM | pGI50 (-log of molar concentration causing 50% inhibition of net cell growth) [11]: 4.76 | GI50 [11, 32]: 17400 nM | pGI50 (-log of molar concentration causing 50% inhibition of net cell growth) ([12]; MALME-3M): 4.74 | GI50 ([12]; MALME-3M, 48 h exposure, SRB, read-out: GI50): 18100 nM | pGI50 (-log of molar concentration causing 50% inhibition of net cell growth) [13]: 5.70 | GI50 [13, 32]: 2000 nM | pGI50 (-log of molar concentration causing 50% inhibition of net cell growth) [14]: 4.63 | pGI50 (-log of molar concentration causing 50% inhibition of net cell growth) [15]: 4.96 | GI50 [15, 32]: 10900 nM | pGI50 (-log of molar concentration causing 50% inhibition of net cell growth) [16]: 5.29 | GI50 [16, 32]: 5070 nM | pGI50 (-log of molar concentration causing 50% inhibition of net cell growth) [17]: 5.41 | GI50 [17, 32]: 3850 nM | pGI50 (-log of molar concentration causing 50% inhibition of net cell growth) [18]: 5.43 | GI50 [18, 32]: 3740 nM | pGI50 (-log of molar concentration causing 50% inhibition of net cell growth) [19]: 5.76 | GI50 [19, 32]: 1750 nM | pGI50 (-log of molar concentration causing 50% inhibition of net cell growth) [20]: 5.76 | GI50 [20, 32]: 1740 nM | pGI50 (-log of molar concentration causing 50% inhibition of net cell growth) ([21]; NCI/ADR-RES): 5.63 | GI50 ([21]; NCl/ADR-RES, 48 h exposure, SRB, read-out: GI50): 2360 nM | pGI50 (-log of molar concentration causing 50% inhibition of net cell growth) [22]: 5.76 | GI50 [22, 32]: 1720 nM | GI50 ([24]; RXF 393, 48 h exposure, SRB, read-out: GI50): 3220 nM | pGI50 (-log of molar concentration causing 50% inhibition of net cell growth) ([24]; RXF-393): 5.49 | pGI50 (-log of molar concentration causing 50% inhibition of net cell growth) [25]: 4.69 | pGI50 (-log of molar concentration causing 50% inhibition of net cell growth) [26]: 5.67 | GI50 [26, 32]: 2140 nM | pGI50 (-log of molar concentration causing 50% inhibition of net cell growth) [27]: 4.50 | GI50 [27, 32]: 31.4 µM | pGI50 (-log of molar concentration causing 50% inhibition of net cell growth) [29]: 5.22 | GI50 [29, 32]: 5.96 µM | pGI50 (-log of molar concentration causing 50% inhibition of net cell growth) [28]: 5.14 | GI50 [28, 32]: 7170 nM
